Assay [1] concerns ANGPTL4, a PPARG target gene, in HT1197 (RXRA S427F mutation) cells. Kind of assay: Bladder cancer pharmacodynamic assay, HT1197 cell assay (qPCR of ANGPTL4). The assay is classed as cell-based. Conditions: Homo sapiens, 24 hours, 100 nM compound, relative to DMSO control. The essentials:
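5637 (PPARG amplified) and HT1197 (RXRA S427F) cells treated 24 h with PPARG inverse agonists. FABP4 and ANGPTL4 expression measured by qPCR, normalised to TBP, and reported relative to DMSO control by ΔΔCt.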

The target in assay [2] is T1, PPARG/RXRA LBD heterodimer (Homo sapiens, UniProt P37231).
T1 construct: His-TEV-Q203-Y477; Uniprot ID P37231-2; made in house; host or cells: E. coli
Kind of assay: PPARγ-NCOR1 recruitment assay (TR-FRET, biotinylated NCOR1 ID2 peptide). The format is biochemical. Conditions: 80 nM Rosiglitazone, 3 hours, read-out: PPARG-NCOR recruitment assay EC50. The essentials: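 2 nM each of E. coli-expressed PPARG LBD (Q203-Y477) and RXRA LBD (WT or S427F, E228-T462) with biotinylated NCOR1 ID2 peptide, incubated 3 h; TR-FRET read at Ex/Em 615/665. Ratios normalized to DMSO (0%) and T0070907 maximum (100%) for EC50 and maximal recruitment.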
T1 sequence (O75376 2251-2273 partner, one chain of several): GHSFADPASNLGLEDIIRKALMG

Assay [3] has as its target T2, PPARG/RXRA LBD heterodimer (Homo sapiens, UniProt P37231).
T2 construct: His-TEV-Q203-Y477; Uniprot ID P37231-2; made in house; host or cells: E. coli
T2 sequence (P37231 203-477 isoform P37231-2): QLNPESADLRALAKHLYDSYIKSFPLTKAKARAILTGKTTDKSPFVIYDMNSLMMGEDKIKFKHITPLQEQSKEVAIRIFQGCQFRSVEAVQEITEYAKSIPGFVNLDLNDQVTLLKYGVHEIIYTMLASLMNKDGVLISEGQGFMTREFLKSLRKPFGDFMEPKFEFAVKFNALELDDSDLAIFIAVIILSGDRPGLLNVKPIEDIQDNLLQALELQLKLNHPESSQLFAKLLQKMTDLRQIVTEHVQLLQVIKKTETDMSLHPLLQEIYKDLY
T2 sequence (P19793 228-462 partner limits assumed): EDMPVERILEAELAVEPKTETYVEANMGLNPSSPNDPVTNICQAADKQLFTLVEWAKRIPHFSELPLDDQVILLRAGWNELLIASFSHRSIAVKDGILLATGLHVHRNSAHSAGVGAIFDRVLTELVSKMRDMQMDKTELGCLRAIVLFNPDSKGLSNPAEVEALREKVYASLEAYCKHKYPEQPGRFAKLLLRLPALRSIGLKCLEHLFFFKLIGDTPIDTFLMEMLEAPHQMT
Kind of assay: PPARγ-MED1 blockade assay (TR-FRET, biotinylated MED1 LxxLL peptide). The assay is classed as biochemical. As to conditions: WT PPARG LBD/WT RXRA LBD, 80 nM Rosiglitazone, 3 hours. The method, boiled down: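 TR-FRET measuring biotinylated MED1 LxxLL peptide association with 2 nM each His-PPARG LBD (Q203-Y477) and Flag-RXRA LBD (E228-T462), E. coli expressed. Read after 3 h incubation; ratios normalized to DMSO (0%) and GW9662 minimum (100%) for IC50 and maximal MED1 repulsion.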
A general note: In TR-FRET formats the signal depends on donor and acceptor labels being close together.

Some results are limits rather than exact numbers.

`Cn1ncc(-c2c(F)cc3[nH]c(-c4cc(C#N)ccc4Cl)cc(=O)c3c2F)cc1=O` [Example 63, 4-chloro-3-(5,7-difluoro-6-(1-methyl-6-oxo-1,6-dihydropyridazin-4-yl)-4-oxo-1,4-dihydroquinolin-2-yl)benzonitrile]: in assay [1], at 0.1 µM the inhibition was 24%. Besides, the EC50 in assay [2] and in assay [3] was 100 to 1000 nM throughout.
For the compound `N#Cc1ccc(Cl)c(-c2cc(=O)c3c(F)c(-c4ccc(CO)nc4)c(F)cc3[nH]2)c1` [Example 64, 4-chloro-3-(5,7-difluoro-6-(6-(hydroxymethyl)pyridin-3-yl)-4-oxo-1,4-dihydroquinolin-2-yl)benzonitrile], testing at 0.1 µM in assay [1] gave an inhibition of 59%. Besides, the EC50 in assay [2] and in assay [3] was 100 to 1000 nM in each case.
As to `Cc1nc(-c2c(F)cc3[nH]c(-c4cc(C#N)ccc4Cl)cc(=O)c3c2F)c[nH]1` [Example 65, 4-chloro-3-(5,7-difluoro-6-(2-methyl-1H-imidazol-4-yl)-4-oxo-1,4-dihydroquinolin-2-yl)benzonitrile], the inhibition (in general, the relative decrease from the control value, in per cent) at 0.1 µM in assay [1] came out at 44%. Also, the EC50 in assay [2] and in assay [3] was 100 to 1000 nM throughout.
Regarding `N#Cc1ccc(Cl)c(-c2cc(=O)c3c(F)c(-c4c[nH]c(C(F)(F)F)n4)c(F)cc3[nH]2)c1` [Example 67, 4-chloro-3-(5,7-difluoro-4-oxo-6-(2-(trifluoromethyl)-1H-imidazol-4-yl)-1,4-dihydroquinolin-2-yl)benzonitrile], the inhibition at 0.1 µM in assay [1] stood at 22%. In addition, the EC50 in assay [2] and in assay [3] was 10 to 100 nM in each case.
Take `N#Cc1ccc(Cl)c(-c2cc(=O)c3c(F)c(-c4nccc(=O)[nH]4)c(F)cc3[nH]2)c1` [Example 68, 4-chloro-3-(5,7-difluoro-4-oxo-6-(6-oxo-1,6-dihydropyrimidin-2-yl)-1,4-dihydroquinolin-2-yl)benzonitrile]: in assay [1], 0.1 µM produced 28% inhibition. Besides, the EC50 in assay [2] and in assay [3] was 1000 to 10000 nM in each case.
`CC(C)(CO)n1cc(-c2c(F)cc3[nH]c(-c4cc(C#N)ccc4Cl)cc(=O)c3c2F)cn1` [Example 69, 4-chloro-3-(5,7-difluoro-6-(1-(1-hydroxy-2-methylpropan-2-yl)-1H-pyrazol-4-yl)-4-oxo-1,4-dihydroquinolin-2-yl)benzonitrile] displayed an inhibition at 0.1 µM in assay [1] of 68%. Further, the EC50 in assay [2] and in assay [3] was 100 to 1000 nM throughout.
As for `Cc1ccc(-c2c(F)cc3[nH]c(-c4cc(C#N)ccc4Cl)cc(=O)c3c2F)nn1` [Example 70, 4-chloro-3-(5,7-difluoro-6-(6-methylpyridazin-3-yl)-4-oxo-1,4-dihydroquinolin-2-yl)benzonitrile], in assay [1], the inhibition at 0.1 µM was found to be 66%. Also, the EC50 in assay [2] and in assay [3] was 1000 to 10000 nM each time.
Regarding `N#Cc1ccc(Cl)c(-c2cc(=O)c3c(F)c(-c4ccnc(CO)c4)c(F)cc3[nH]2)c1` [Example 71, 4-chloro-3-(5,7-difluoro-6-(2-(hydroxymethyl)pyridin-4-yl)-4-oxo-1,4-dihydroquinolin-2-yl)benzonitrile], at 0.1 µM the inhibition in assay [1] was 51%. For the same compound, the EC50 in assay [2] and in assay [3] was 1000 to 10000 nM in each case.
In assay [1], `COCCn1ccc(-c2c(F)cc3[nH]c(-c4cc(C#N)ccc4Cl)cc(=O)c3c2F)n1` [Example 72, 4-chloro-3-(5,7-difluoro-6-(1-(2-methoxyethyl)-1H-pyrazol-3-yl)-4-oxo-1,4-dihydroquinolin-2-yl)benzonitrile] returned an inhibition at 0.1 µM of 79%. Besides, the EC50 in assay [2] and in assay [3] was 100 to 1000 nM throughout.
With `N#Cc1ccc(Cl)c(-c2cc(=O)c3c(F)c(-c4ccc(C(F)F)nc4)c(F)cc3[nH]2)c1` [Example 73, 4-chloro-3-(6-(6-(difluoromethyl)pyridin-3-yl)-5,7-difluoro-4-oxo-1,4-dihydroquinolin-2-yl)benzonitrile], the inhibition at 0.1 µM in assay [1] is 85%. In addition, the EC50 in assay [2] and in assay [3] was 10 to 100 nM throughout.
Regarding `N#Cc1ccc(Cl)c(-c2cc(=O)c3c(F)c(-c4cccc(C(=O)O)c4)c(F)cc3[nH]2)c1` [Example 74, 3-(2-(2-chloro-5-cyanophenyl)-5,7-difluoro-4-oxo-1,4-dihydroquinolin-6-yl)benzoic acid], the inhibition at 0.1 µM in assay [1] was found to be 12%. The EC50 in assay [2] and in assay [3] was 100 to 1000 nM in each case.
For the compound `N#Cc1ccc(Cl)c(-c2cc(=O)c3c(F)c(-c4ccc(C(=O)O)cc4)c(F)cc3[nH]2)c1` [Example 75, 4-(2-(2-chloro-5-cyanophenyl)-5,7-difluoro-4-oxo-1,4-dihydroquinolin-6-yl)benzoic acid], testing at 0.1 µM in assay [1] gave an inhibition of 20%. Also, the EC50 in assay [2] and in assay [3] was 1000 to 10000 nM in each case.
For `N#Cc1ccc(Cl)c(-c2cc(=O)c3c(F)c(-c4ccc(CC(=O)O)cc4)c(F)cc3[nH]2)c1` [Example 76, 2-(4-(2-(2-chloro-5-cyanophenyl)-5,7-difluoro-4-oxo-1,4-dihydroquinolin-6-yl)phenyl)acetic acid], testing at 0.1 µM in assay [1] gave an inhibition of 39%. In addition, the EC50 in assay [2] and in assay [3] was 100 to 1000 nM each time.
Take `N#Cc1ccc(Cl)c(-c2cc(=O)c3c(F)c(CCC(=O)O)c(F)cc3[nH]2)c1` [Example 77, 3-(2-(2-chloro-5-cyanophenyl)-5,7-difluoro-4-oxo-1,4-dihydroquinolin-6-yl)propanoic acid]: the inhibition at 0.1 µM in assay [1] was found to be 44%. Moreover, the EC50 in assay [2] and in assay [3] was 1000 to 10000 nM throughout.
Turning to `CNC(=O)c1cccc(-c2c(F)cc3[nH]c(-c4cc(C#N)ccc4Cl)cc(=O)c3c2F)c1` [Example 78, 3-(2-(2-chloro-5-cyanophenyl)-5,7-difluoro-4-oxo-1,4-dihydroquinolin-6-yl)-N-methylbenzamide], testing at 0.1 µM in assay [1] gave an inhibition of 36%. Moreover, the EC50 in assay [2] and in assay [3] was 100 to 1000 nM in each case.
Compound `CNC(=O)c1ccc(-c2c(F)cc3[nH]c(-c4cc(C#N)ccc4Cl)cc(=O)c3c2F)cc1` [Example 79, 4-(2-(2-chloro-5-cyanophenyl)-5,7-difluoro-4-oxo-1,4-dihydroquinolin-6-yl)-N-methylbenzamide] registered an inhibition at 0.1 µM in assay [1] of 58%. Besides, the EC50 in assay [2] and in assay [3] was 100 to 1000 nM in each case.
With `CNC(=O)Cc1ccc(-c2c(F)cc3[nH]c(-c4cc(C#N)ccc4Cl)cc(=O)c3c2F)cc1` [Example 80, 2-(4-(2-(2-chloro-5-cyanophenyl)-5,7-difluoro-4-oxo-1,4-dihydroquinolin-6-yl)phenyl)-N-methylacetamide], the inhibition at 0.1 µM in assay [1] came out at 47%. Also, the EC50 in assay [2] and in assay [3] was 100 to 1000 nM each time.
In turn, `CNC(=O)CCc1c(F)cc2[nH]c(-c3cc(C#N)ccc3Cl)cc(=O)c2c1F` [Example 81, 3-(2-(2-chloro-5-cyanophenyl)-5,7-difluoro-4-oxo-1,4-dihydroquinolin-6-yl)-N-methylpropanamide] yielded an inhibition at 0.1 µM in assay [1] of 46%. For the same compound, the 50% effective concentration (EC50) (in general, the concentration giving half of the maximal effect) was 1000 to 10000 nM in assay [2] and over 10000 nM in assay [3].
With `CN(C)C(=O)c1cc(-c2c(F)cc3[nH]c(-c4cc(C#N)ccc4Cl)cc(=O)c3c2F)ccc1F` [Example 82, 5-(2-(2-chloro-5-cyanophenyl)-5,7-difluoro-4-oxo-1,4-dihydroquinolin-6-yl)-2-fluoro-N,N-dimethylbenzamide], 0.1 µM produced 70% inhibition in assay [1]. In addition, the EC50 in assay [2] and in assay [3] was 100 to 1000 nM throughout.
For the compound `CN(C)C(=O)c1c(F)ccc(-c2c(F)cc3[nH]c(-c4cc(C#N)ccc4Cl)cc(=O)c3c2F)c1F` [Example 83, 3-(2-(2-chloro-5-cyanophenyl)-5,7-difluoro-4-oxo-1,4-dihydroquinolin-6-yl)-2,6-difluoro-N,N-dimethylbenzamide], the inhibition at 0.1 µM in assay [1] is 76%. The EC50 in assay [2] and in assay [3] was 100 to 1000 nM throughout.
Compound `CN(C)C(=O)CCc1c(F)cc2[nH]c(-c3cc(C#N)ccc3Cl)cc(=O)c2c1F` [Example 84, 3-(2-(2-chloro-5-cyanophenyl)-5,7-difluoro-4-oxo-1,4-dihydroquinolin-6-yl)-N,N-dimethylpropanamide] showed an inhibition at 0.1 µM in assay [1] of 67%. Moreover, the EC50 in assay [2] and in assay [3] was 1000 to 10000 nM throughout.

These data come from patent publication US20240166624A1, “PPARG INVERSE AGONISTS AND USES THEREOF” (Flare Therapeutics Inc., priority 2021, published 2024).
